Legend:
rats = experiment: Shock-Induced Suppression of Drinking (Rats) (SSD) Test; assay type: in vivo, rat; conditions: significant, P less than 0.05, Students' t-test, vs control
Description: Male rats in the weight range of 200 to 220 grams are deprived of water for 48 hours and deprived of food for 24 hours before testing. Normally, the rats are orally intubated (5 ml/kg) with the test compound (based on mg/kg body weight). The vehicle control group of rats is also intubated by mouth. A positive control group of rats is also orally administered a control dose of 18 mg/kg of chlordiazepoxide. Random selection of the rats is utilized in dosing. The rats are returned to the cage for one hour. Sixty minutes after drug administration, the rat is quietly removed from its cage and the hind feet wiped with Signa electrode gel made by Parker Laboratories or Orange, N.J. When intraperitoneal (i.p.) administration was used, the protocol was identical except that the drugs were administered (5 ml/kg) 30 minutes prior to testing. The rat is placed on the floor in the chamber facing the licking tube. The animal is allowed 5 minutes to make 20 licking responses and receive the first shock (0.5 mA). […] This period is automatically started, counted and terminated. The number of licks and shocks are recorded. The activity of the compound tested is evaluated by comparing the mean shocks of the group dosed with the test compound to both the mean shocks of the vehicle and positive control groups via a Students' t-test. […]

[1] = system: [^3 H]flunitrazepam binding, lysed mitochondrial-synaptosomal (P2) fraction from the cerebral cortex; experiment: [^3 H]flunitrazepam binding test; conditions: 0.2 nM [^3 H]flunitrazepam, rat cerebral cortex membranes, 90 min at 0° C.
[2] = system: [^3 H]flunitrazepam binding, lysed mitochondrial-synaptosomal (P2) fraction from the cerebral cortex; conditions: general statement on reference compounds; cited from earlier work
monkeys = experiment: oral administration to monkeys, deaths; assay type: in vivo, monkey; conditions: 100 mg/kg
[3] = approximate oral LD50 in the rat; conditions: in vivo

| SMILES | increase in the number of shocks taken (anti-conflict / anti-anxiety activity) (rats) | effect on flunitrazepam binding [1] | effect on flunitrazepam binding (known compounds) [2] | deaths (monkeys) | LD50 [3] [mg/kg] |
| --- | --- | --- | --- | --- | --- |
| C=CCN1Cc2nc3c(cnn3CCCCC)c(N)c2C1=O [Example 4, 6-Allyl-4-amino-6,7-dihydro-1-n-pentylpyrazolo[3,4-b]pyrrolo[3,4-e]pyridin-5(1H)-one] | showed activity | activity as displacers of flunitrazepam binding |  |  |  |
| CCCCNc1c(C(=O)OCC)cnc2c1cnn2CC [cartazolate] |  |  | enchancement of the binding |  |  |
| CCCCCn1ncc2c(N)c3c(nc21)CN(CCC)C3=O [Example 5, 4-Amino-6,7-dihydro-1-n-pentyl-6-n-propylpyrazolo[3,4-b]pyrrolo[3,4-e]pyridin-5(1H)-one] | showed activity | activity as displacers of flunitrazepam binding |  | no deaths | > 800 |
| CCCCNc1c(C(=O)OCC)c(C)nc2c1cnn2CC [tracazolate] |  |  | enchancement of the binding |  |  |

— patent US4511568A, “CNS-Depressant pyrazolopyridines” (ICI Americas Inc., priority 1982, dated 1985)
